Source: patent US20200138827A1, “SMALL MOLECULE MODULATORS OF HUMAN STING” (Curadev Pharma Limited, priority 2017, published 2020)

Each compound was assayed against T1, WT/R232 STING protein (Homo sapiens, UniProt Q86WV6, H232R) (assay: Luciferase reporter assay in HEK293T-hSTING-Luciferase cells, WT/R232). Conditions: 20 hr stimulation, read-out: R232 Activity (EC50 range).
T1 construct: host or cells: HEK293T
Type: cell-based
Source text: • a) Stable STING expressing cells—Stable HEK293T STING-expressing cell lines were generated using plasmids purchased from Invivogen, Calif., USA, that contain STING cDNA cloned into the pUNO-1 vector under hEF1-HTLV promoter and containing the Blasticidin selection cassette. The plasmids hSTING(R232), hSTING(H232), hSTING(HAQ) were directly procured from Invivogen while hSTING (AQ) and hSTING (Q) were derived from hSTING(HAQ) and hSTING (R232) plasmids respectively by using a PCR based site directed mutagenesis method. These vectors were individually transfected into HEK293T cells using Lipofectamine (Invitrogen) and transfected cells were selected under Blasticidin selection. These transfected cells were further subjected to clonal selection using the limiting dilution method to obtain clonally pure populations of HEK cells transfected with each of the above mentioned human STING variants. Only those clones were selected in which ligand independent activation of STING was minimal. • b) Stable Luciferase reporter gene expressing cells—Stable HEK293T Luciferase reporter gene expressing cell lines were generated using pCDNA4 plasmids under an IRF-inducible promoter. This promoter is comprised of five tandem interferon-stimulated response elements (ISRE) fused to an ISG54 minimal promoter. This vector was transfected into HEK293T cells using Lipofectamine (Invitrogen) and transfected cells were selected under Zeocin selection. These transfected cells were further subjected to clonal selection using the limiting dilution method to obtain clonally pure populations of HEK cells transfected the Luciferase reporter construct. Only those clones were selected in which ligand independent induction of luciferase was minimal.
5×10^5 clonally selected HEK293T-hSTING-Luciferase cells were seeded in 384-well plates in growth medium and stimulated with novel compounds. After 20 hr of stimulation supernatant were removed and secretary reporter gene activity were measured using the Quanti-Luc detection system (Invivogen) on a Spectramax i3X luminometer.
All compounds were first tested in a primary screen using WT/R232 STING protein to obtain a ‘fold-induction’ over baseline levels of protein activity.

T1 sequence (Q86WV6 whole entry H232R): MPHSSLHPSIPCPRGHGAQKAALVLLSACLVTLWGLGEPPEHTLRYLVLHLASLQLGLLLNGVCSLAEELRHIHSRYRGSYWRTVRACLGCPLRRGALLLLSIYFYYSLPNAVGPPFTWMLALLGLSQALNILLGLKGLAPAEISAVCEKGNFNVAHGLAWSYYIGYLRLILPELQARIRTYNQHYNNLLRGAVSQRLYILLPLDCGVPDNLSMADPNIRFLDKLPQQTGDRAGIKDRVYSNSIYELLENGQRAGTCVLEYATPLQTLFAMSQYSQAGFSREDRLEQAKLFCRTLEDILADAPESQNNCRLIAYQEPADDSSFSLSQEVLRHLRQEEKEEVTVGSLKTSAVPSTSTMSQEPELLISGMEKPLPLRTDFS

| SMILES | EC50 [µM] |
| --- | --- |
| O=C(NCc1ccco1)c1ccc2c(c1)N(Cc1ccccc1Cl)C(=O)CS2 [Example 1, 4-(2-chlorobenzyl)-N-(furan-2-ylmethyl)-3-oxo-3,4-dihydro-2H-benzo[b-1,4]thiazine-6-carboxamide] | > 10 |
| O=C(NCc1ccco1)c1ccc2c(c1)N(C(=O)c1ccccc1)CCS2 [Example 255, 4-benzoyl-N-(furan-2-ylmethyl)-3,4-dihydro-2H-benzo[b][1,4]thiazine-6-carboxamide] | > 10 |
| CN(Cc1ccco1)C(=O)c1ccc2c(c1)N(Cc1ccccc1)C(=O)CS2 [Example 33, 4-benzyl-N-(furan-2-ylmethyl)-N-methyl-3-oxo-3,4-dihydro-2H-benzo[b][1,4] thiazine-6-carboxamide] | > 10 |
| O=C(NCc1ccco1)c1ccc2c(c1)N(C(=O)c1ccccc1F)CCS2(=O)=O [Example 254, 4-(2-Fluorobenzoyl)-N-(furan-2-ylmethyl)-3,4-dihydro-2H-benzo[b-1,4]thiazine-6-carboxamide 1,1-dioxide] | > 10 |
| Cc1cnc(CNC(=O)c2ccc3c(c2)N(Cc2cnn(C)c2)C(=O)C(C)S3)o1 (centres unmarked) [Example 173, 2-methyl-4-((1-methyl-1H-pyrazol-4-yl)methyl)-N-((5-methyloxazol-2-yl)methyl)-3-oxo-3,4-dihydro-2H-benzo[b][1,4] thiazine-6-carboxamide] | > 10 |
| Cc1noc(CNC(=O)c2ccc3c(c2)N(Cc2ccccc2)C(=O)CS3)n1 [Example 66, 4-benzyl-N-((3-methyl-1,2,4-oxadiazol-5-yl)methyl)-3-oxo-3,4-dihydro-2H-benzo[b-1,4]thiazine-6-carboxamide] | 1 to 10 |
| CC1Sc2ccc(C(=O)NCc3ccn(C)n3)cc2N(Cc2c(F)cccc2Cl)C1=O (centres unmarked) [Example 172, 4-(2-chloro-6-fluorobenzyl)-2-methyl-N-((1-methyl-1H-pyrazol-3-yl)methyl)-3-oxo-3,4-dihydro-2H-benzo[b] [1,4]thiazine-6-carboxamide] | > 10 |
| O=C(NCc1ccco1)c1ccc2c(c1)N(CC(O)c1ccccc1)CCS2 (centres unmarked) [Example 248, N-(furan-2-ylmethyl)-4-(2-hydroxy-2-phenylethyl)-3,4-dihydro-2H-benzo[b-1,4]thiazine-6-carboxamide] | > 10 |
| O=C(NCc1ccco1)c1ccc2c(c1)N(Cc1cccc(C(F)(F)F)c1)C(=O)CS2 [Example 97, N-(furan-2-ylmethyl)-3-oxo-4-(3-(trifluoromethyl)benzyl)-3,4-dihydro-2H-benzo[b-1,4]thiazine-6-carboxamide] | > 10 |
| O=C(NCc1cc2cnccc2o1)c1ccc2c(c1)N(Cc1cc(F)cc(F)c1)C(=O)CC2 [Example 273, 1-(3,5-difluorobenzyl)-N-(furo[3,2-c]pyridin-2-ylmethyl)-2-oxo-1,2,3,4-tetrahydroquinoline-7-carboxamide] | > 10 |
| O=C(NCc1c(F)cc(F)cc1F)c1cnc2c(c1)N(Cc1cc(F)cc(F)c1)C(=O)CO2 [Example 236, 1-(3,5-difluorobenzyl)-2-oxo-N-(2,4,6-trifluorobenzyl)-2,3-dihydro-1H-pyrido[2,3-b-1,4]oxazine-7-carboxamide] | > 10 |
| CC(NC(=O)c1ccc2c(c1)N(Cc1ccccc1)C(=O)CS2)c1ccc(S(C)(=O)=O)cc1 (centres unmarked) [Example 57, 4-benzyl-N-(1-(4-(methylsulfonyl)phenyl)ethyl)-3-oxo-3,4-dihydro-2H-benzo[b-1,4]thiazine-6-carboxamide] | > 10 |
| CC1Sc2ncc(C(=O)NCc3cccnn3)cc2N(Cc2cc(F)cc(F)c2)C1=O (centres unmarked) [Example 214, 1-(3,5-difluorobenzyl)-3-methyl-2-oxo-N-(pyridazin-3-ylmethyl)-2,3-dihydro-1H-pyrido [2,3-b][1,4] thiazine-7-carboxamide] | > 10 |
| O=C(NCC1CC1)c1ccc2c(c1)N(Cc1ccccc1F)C(=O)CS2 [Example 20, N-(cyclopropyl-methyl)-4-(2-fluorobenzyl)-3-oxo-3,4-dihydro-2H-benzo[b-1,4]thiazine-6-carboxamide] | > 10 |

Second part, the compound after the results:

| EC50 [µM] | SMILES |
| --- | --- |
| > 10 | CC1Oc2ncc(C(=O)NCc3cccc(C(F)(F)F)c3)cc2N(Cc2c(F)cccc2Cl)C1=O (centres unmarked) [Example 244, 1-(2-chloro-6-fluorobenzyl)-3-methyl-2-oxo-N-(3-(trifluoromethyl)benzyl)-2,3-dihydro-1H-pyrido[2,3-b][1,4]oxazine-7-carboxamide] |
| > 10 | O=C(NCc1ccco1)c1ccc2c(c1)N(Cc1ccccc1OC(F)(F)F)C(=O)CS2 [Example 91, N-(furan-2-ylmethyl)-3-oxo-4-(2-(trifluoromethoxy)benzyl)-3,4-dihydro-2H-benzo[b-1,4]thiazine-6-carboxamide] |
| 1 to 10 | O=C(NCc1ccc2ccccc2c1)c1ccc2c(c1)N(Cc1ccccc1)C(=O)CS2 [Example 74, 4-benzyl-N-(naphthalen-2-ylmethyl)-3-oxo-3,4-dihydro-2H-benzo[b-1,4]thiazine-6-carboxamide] |
| > 10 | CC1(F)Sc2ccc(C(=O)NCc3c(F)cc(F)cc3F)cc2N(Cc2c(F)cccc2Cl)C1=O (centres unmarked) [Example 165, 4-(2-chloro-6-fluorobenzyl)-2-fluoro-2-methyl-3-oxo-N-(2,4,6-trifluorobenzyl)-3,4-dihydro-2H-benzo[b][1,4] thiazine-6-carboxamide] |
| > 10 | Cc1cnc(CNC(=O)c2cnc3c(c2)N(Cc2cc(F)cc(F)c2)C(=O)C(C)S3)o1 (centres unmarked) [Example 213, 1-(3,5-difluorobenzyl)-3-methyl-N-((5-methyloxazol-2-yl)methyl)-2-oxo-2,3-dihydro-1H-pyrido[2,3-b][1,4]thiazine-7-carboxamide] |
| > 10 | COc1ccc(CCNC(=O)c2ccc3c(c2)N(Cc2ccccc2)C(=O)CS3)cc1OC [Example 171, 4-benzyl-N-(3,4-dimethoxy-phenethyl)-3-oxo-3,4-dihydro-2H-benzo[b][1,4] thiazine-6-carboxamide] |
| > 10 | O=C(NCc1ncccn1)c1ccc2c(c1)N(Cc1ccccc1)C(=O)CS2 [Example 54, 4-benzyl-3-oxo-N-(pyrimidin-2-ylmethyl)-3,4-dihydro-2H-benzo[b-1,4]thiazine-6-carboxamide] |
| > 10 | CC(O)c1cc(C(=O)NCc2c(F)cc(F)cc2F)cc2c1SCC(=O)N2Cc1ccc(F)cc1 (centres unmarked) [Example 223, 4-(4-fluorobenzyl)-8-(1-hydroxyethyl)-3-oxo-N-(2,4,6-trifluorobenzyl)-3,4-dihydro-2H-benzo[b][1,4] thiazine-6-carboxamide] |
| 1 to 10 | O=C(NCc1ccsc1)c1ccc2c(c1)N(Cc1ccccc1)C(=O)CS2 [Example 61, 4-benzyl-3-oxo-N-(thiophen-3-ylmethyl)-3,4-dihydro-2H-benzo[b-1,4]thiazine-6-carboxamide] |
| > 10 | O=C(NCc1ccccc1Cl)c1ccc2c(c1)N(Cc1cccc(Cl)c1)C(=O)CS2 [Example 124, N-(2-chlorobenzyl)-4-(3-chlorobenzyl)-3-oxo-3,4-dihydro-2H-benzo[b-1,4]thiazine-6-carboxamide] |
| > 10 | O=C(NCc1ccco1)c1cc(C2CC2)c2c(c1)N(Cc1ccccc1F)C(=O)CS2 [Example 227] |
| 1 to 10 | O=C(NCc1ccco1)c1ccc2c(c1)N(Cc1cccc3ccccc13)C(=O)CS2 [Example 14, N-(furan-2-ylmethyl)-4-(naphthalen-1-ylmethyl)-3-oxo-3,4-dihydro-2H-benzo[b-1,4]thiazine-6-carboxamide] |
| > 10 | O=C(NCc1ccco1)c1ccc2c(c1)N(Cc1ccccc1F)C(=O)CS2 [Example 106, 4-(2-fluorobenzyl)-N-(furan-2-ylmethyl)-3-oxo-3,4-dihydro-2H-benzo[b-1,4]thiazine-6-carboxamide] |
| > 10 | O=C(NCc1ccccc1Cl)c1ccc2c(c1)N(Cc1ccccc1Cl)C(=O)CS2 [Example 123, N,4-bis(2-chlorobenzyl)-3-oxo-3,4-dihydro-2H-benzo[b-1,4]thiazine-6-carboxamide] |
| > 10 | CC1Sc2ccc(C(=O)NCc3cnccn3)cc2N(Cc2cc(F)cc(F)c2)C1=O (centres unmarked) [Example 168, 4-(3,5-difluorobenzyl)-2-methyl-3-oxo-N-(pyrazin-2-ylmethyl)-3,4-dihydro-2H-benzo [b][1,4]thiazine-6-carboxamide] |
| > 10 | COc1ccccc1CNC(=O)c1ccc2c(c1)N(Cc1ccccc1)C(=O)CS2 [Example 116, 4-benzyl-N-(2-methoxybenzyl)-3-oxo-3,4-dihydro-2H-benzo[b-1,4]thiazine-6-carboxamide] |
| > 10 | O=C(NCCc1ccccc1)c1ccc2c(c1)N(Cc1c(F)cccc1Cl)C(=O)CS2 [Example 129, 4-(2-chloro-6-fluorobenzyl)-3-oxo-N-phenethyl-3,4-dihydro-2H-benzo[b-1,4]thiazine-6-carboxamide] |
| > 10 | Cc1nnc(CN2C(=O)CSc3ccc(C(=O)NCc4ccco4)cc32)n1C [Example 105, 4-((4,5-dimethyl-4H-1,2,4-triazol-3-yl)methyl)-N-(furan-2-ylmethyl)-3-oxo-3,4-dihydro-2H-benzo[b-1,4]thiazine-6-carboxamide] |
